What was measured:
tubulin = settings: 10 μL added to 100 μL 4 mg/ml tubulin, FIG. 1
Description: The effect of 3AA-MDC and related metabolites on the tubulin polymerization in vitro was assessed by HTS-Tubulin Polymerization Assay Kit (BK004P, Cytoskeleton, Inc., USA). According to the instruction of kit, pre-warm the 96-well plate to 37° C. for 30 min prior to starting the assay. At the same time, the spectrophotometer (SpectraMax, Molecular Devices, USA) was set as follow: wavelength, 405 nm; temperature, 37° C.; Kinetic, 31 cycles of 1 reading per minute. Make cold G-PEM buffer (990 μL General Tubulin Buffer+10 μL GTP Stock) and keep it on ice. Prepare 4 mg/ml tubulin, 200 nM L-3AA-MDC (N2′-deacetyl-N2′-(6-maleimido-1-oxo-hexyl)maytansine), or related compounds cys-3AA-MDC, or lys-mcc-MDC, 100 μM Paclitaxel, 100 μM Nocodazole, and 1 μM 206-3AA-MDC (3AA-MDC-antibody conjugate). Add 10 μL G-PEM, 3AA-MDC, Paclitaxel, Nocodazole and 206-3AA-MDC or related metabolites into the wells, and then add 100 μL 4 mg/ml tubulin to each well. Immediately place the plate into the spectrophotometer and start recording using the kinetic setup described above.

[1] = system: human acute lymphoblastic leukemia line C.E.M.; settings: Wolpert-DeFillippes et al. 1975; cited from earlier work

COc1cc2cc(c1Cl)N(C)C(=O)C[C@H](OC(=O)[C@H](C)N(C)C(=O)CCCCCN1C(=O)C=CC1=O)[C@]1(C)OC1[C@H](C)[C@@H]1C[C@@](O)(NC(=O)O1)[C@H](OC)/C=C/C=C(\C)C2 (stereo partly drawn) [L-3AA-MDC, N2′-deacetyl-N2′-(6-maleimido-1-oxo-hexyl)maytansine]
effect on tubulin polymerization (in words) (tubulin; 200 nM stock, compared with Nocodazole): more significantly inhibited the tubulin polymerization

COc1cc2cc(c1Cl)N(C)C(=O)C[C@H](OC(=O)[C@H](C)N(C)C(C)=O)[C@]1(C)O[C@H]1[C@H](C)[C@@H]1C[C@@](O)(NC(=O)O1)[C@H](OC)/C=C/C=C(\C)C2 [Maytansine]
concentration that inhibits C.E.M. line (as low as) [1]: 10^−7 µg/mL

COC(=O)Nc1nc2ccc(C(=O)c3cccs3)cc2[nH]1 [Nocodazole]
relative activity of tubulin polymerization decreased (tubulin; 100 μM Nocodazole stock, 37° C., 405 nm): 2.5 fold

CC(=O)O[C@H]1C(=O)[C@@]2(C)[C@H]([C@H](OC(=O)c3ccccc3)[C@]3(O)C[C@H](OC(=O)[C@H](O)[C@@H](NC(=O)c4ccccc4)c4ccccc4)C(C)=C1C3(C)C)[C@]1(OC(C)=O)CO[C@@H]1C[C@@H]2O [Paclitaxel]
relative activity of tubulin polymerization enhanced (tubulin; 100 μM Paclitaxel stock, 37° C., 405 nm): about 3 fold
